Data from patent publication EP0701444B1, “METHODS AND COMPOSITIONS FOR INDUCING SLEEP” (Purdue Pharma Ltd., priority 1993, dated 1994).

target: steroid site on the GABAA receptor-chloride channel complex; test: [35S]TBPS binding assay; parameters: species or system Male Sprague-Dawley rats; settings: inhibition of [35S]TBPS (2 nM) binding, rat cerebral cortex P2 membranes, 5 µM GABA, 90 minute incubation at 22°C
Method: TBPS binding assays were conducted according to the following procedures, which are described in Gee, K.W.; Lawrence, L.J.; and Yamamura, H. I., "Modulation of the Chloride Ionophore by Benzodiazepine Receptor Ligands Influence of Gamma-Aminobutyric Acid and Ligand Efficacy," Molecular Pharmacology, 30:218, 1986. Male Sprague-Dawley rats (200-250g) were anesthetized with carbon dioxide and decapitated. The rats' brains were removed and the cerebral cortices were dissected and homogenized in 10 volumes of 0.32 M sucrose. Tissue was centrifuged at 1000 x g for 10 minutes and the resultant supernatant was centrifuged at 9,000 g for 20 minutes. The resultant pellet was resuspended in 10 volumes of 200 mM NaCl/50 mM Na-K phosphate pH 7.4 buffer (binding buffer) and then centrifuged at 9,000 x g for 10 minutes. This washing procedure was repeated twice and the final P2 pellet was resuspended in the binding buffer. For the binding assay, [^35S] TBPS (2 nM) was co-incubated in binding buffer with P2 membranes and 5 µM GABA and either 1) no additions to measure total binding; 2) 2 µM unlabeled TPBS to measure nonspecific binding; 3) the neurosteroid ranging in concentration from 1 Nm to 10µM. Following a 90 minute incubation at 22°C, the suspension was filtered and the bound radioactivity was determined by liquid scintillation counting. […] A lower IC50 indicates higher affinity for the steroid site on the GABAA receptor-chloride channel complex. Table 1 gives the IC50 values of representative steroids used in the present invention.

SMILES	IC50 [µM]
C#C[C@@]1(O)CC[C@@]2(C)[C@H](CC[C@@H]3[C@@H]2CC[C@]2(C)[C@@H](C(=O)COC(C)=O)CC[C@@H]32)C1 [3α, 21-Dihydroxy-3β-ethynyl-5β-pregnan-20-one, 21-acetate]	0.251
C[C@]12CC[C@H]3[C@@H](CC[C@@H]4C[C@@](O)(C(F)(F)F)CC[C@@H]43)[C@@H]1CC[C@@H]2C(=O)CO [3α, 21-Dihydroxy-3β-trifluoromethyl-19-nor-5β-pregnan-20-one]	0.265
C[C@@]1(O)CC[C@@]2(C)[C@@H](CC[C@@H]3[C@@H]2CC[C@]2(C)[C@@H](C(=O)COS(C)(=O)=O)CC[C@@H]32)C1 [3α, 21-dihydroxy-3β-methyl-5α-pregnan-20-one 21-mesylate]	0.255
C=CC[C@@]1(O)CC[C@@]2(C)[C@H](CC[C@@H]3[C@@H]2CC[C@]2(C)[C@@H](C(C)=O)CC[C@@H]32)C1 [3α-Hydroxy-3β-(2'-propenyl)-5β-pregnan-20-one]	0.075
CC(=O)[C@H]1CC[C@H]2[C@@H]3CC[C@H]4C[C@@](O)(C#CC(C)O)CC[C@]4(C)[C@H]3CC[C@]12C (stereo partly drawn) [3α-Hydroxy-3β-[3'(RS)-hydroxybutynyl]-5α-pregnan-20-one]	0.14
C/C=C1/CC[C@H]2[C@@H]3CC[C@@H]4C[C@](C)(O)CC[C@@H]4[C@H]3CC[C@]12C [3α-Hydroxy-3β-methyl-5β-19-nor-pregn-17 (Z)-ene]	0.154
CC(=O)[C@H]1CC[C@H]2[C@@H]3CC[C@@H]4C[C@](C)(O)CC[C@@H]4[C@H]3CC[C@]12C [3α-Hydroxy-3β-methyl-5β-19-nor-pregnan-20-one]	0.026
CC(=O)[C@H]1CC[C@H]2[C@@H]3CC[C@H]4C[C@@](O)(C(F)(F)F)CC[C@@H]4[C@H]3CC[C@]12C [3α-Hydroxy-3β-trifluoromethyl-19-nor-5α-pregnan-20-one]	0.251
C[C@@]12CCC[C@H]1[C@@H]1CC[C@H]3C[C@H](O)CC[C@]3(C)[C@H]1CC2 [3α-Hydroxy-5α-androstane]	0.252
C/C=C1/CC[C@H]2[C@@H]3CC[C@@H]4C[C@H](O)CC[C@@H]4[C@H]3CC[C@]12C [3α-Hydroxy-5β-19-nor-pregn-17(z) ene]	0.209
C#C[C@H]1CC[C@H]2[C@@H]3CC[C@H]4C[C@H](O)CC[C@]4(C)[C@H]3CC[C@]12C [3α-Hydroxy-17b-ethynyl-5α-androstane]	0.254
CCC(=O)[C@H]1CC[C@H]2[C@@H]3CC[C@H]4C[C@](C)(O)CC[C@]4(C)[C@H]3CC[C@]12C [3α-hydroxy-3β,21-dimethyl-5α-pregnan-20-one]	0.089
CC(=O)[C@H]1CC[C@H]2[C@@H]3CC[C@H]4C[C@@](O)(CCl)CC[C@]4(C)[C@H]3CC[C@]12C [3α-hydroxy-3β-chloromethyl-5α-pregnan-20-one]	0.093
CC[C@@]1(O)CC[C@@]2(C)[C@@H](CC[C@@H]3[C@@H]2CC[C@]2(C)[C@@H](C(C)=O)CC[C@@H]32)C1 [3α-hydroxy-3β-ethyl-5α-pregnan-20-one]	0.265
CC(=O)[C@H]1CC[C@H]2[C@@H]3CC[C@H]4C[C@@](O)(CF)CC[C@]4(C)[C@H]3CC[C@]12C [3α-hydroxy-3β-fluoromethyl-5α-pregnan-20-one]	0.2
COC[C@@]1(O)CC[C@@]2(C)[C@@H](CC[C@@H]3[C@@H]2CC[C@]2(C)[C@@H](C(C)=O)CC[C@@H]32)C1 [3α-hydroxy-3β-methoxymethyl-5α-pregnan-20-one]	0.067
C/C=C1/CC[C@H]2[C@@H]3CC[C@H]4C[C@](C)(O)CC[C@@H]4[C@H]3CC[C@]12C [3α-hydroxy-3β-methyl-5α-19-nor-pregn-(Z)-17(20)-ene]	0.364
CC(=O)[C@H]1CC[C@H]2[C@@H]3CC[C@H]4C[C@](C)(O)CC[C@@H]4[C@H]3CC[C@]12C [3α-hydroxy-3β-methyl-5α-19-nor-pregnan-20-) one]	0.091
C/C=C1/CC[C@H]2[C@@H]3CC[C@@H]4C[C@H](O)CC[C@]4(C)[C@H]3CC[C@]12C [3α-hydroxy-5β-pregnan-cis(Z)-17(20)-ene]	0.18
CO/C=C1/CC[C@H]2[C@@H]3CC[C@H]4C[C@H](O)CC[C@@H]4[C@H]3CC[C@]12C [3α-hydroxy-17(Z)-methoxymethylene-19-nor-5α-androstane]	0.35
C[C@]12CC[C@@H](O)C[C@@H]1CC[C@@H]1[C@@H]2CC[C@]2(C)[C@@H](C#N)CC[C@@H]12 [3α-hydroxy-17b-cyano-5α-androstane]	0.067

SMILES	IC50 [µM]
C[C@]12CC[C@@H](O)C[C@@H]1CC[C@@H]1[C@@H]2CC[C@]2(C)[C@@H](CO)CC[C@@H]12 [3α-hydroxy-17b-hydroxymethyl-5α-androstane-]	0.455
C/C=C1/CC[C@H]2[C@@H]3CC[C@H]4C[C@H](O)CC[C@@H]4[C@H]3CC[C@]12C [3α-hydroxy-19-nor-5α-pregnan-cis-17(20)-ene]	0.373
C[C@]12CC[C@@H](O)C[C@@H]1CC[C@@H]1[C@@H]2CC[C@]2(C)[C@@H](C(=O)CSc3ccncc3)CC[C@@H]12 [3α-hydroxy-21-(pyrid-4-ylthio)-5α-pregnan-20-one]	0.023
COCC(=O)[C@H]1CC[C@H]2[C@@H]3CC[C@@H]4C[C@@](O)(C(F)(F)F)CC[C@@H]4[C@H]3CC[C@]12C [3α-hydroxy-21-methoxy-3β-trifluoromethyl-5β-19-nor-pregnan-20-one]	0.252
CC/C=C1/CC[C@H]2[C@@H]3CC[C@@H]4C[C@H](O)CC[C@]4(C)[C@H]3CC[C@]12C [3α-hydroxy-21-methyl-5β-pregnan-17(20)(Z)-ene]	0.217
CCC(=O)[C@H]1CC[C@H]2[C@@H]3CC[C@@H]4C[C@H](O)CC[C@]4(C)[C@H]3CC[C@]12C [3α-hydroxy-21-methyl-5β-pregnan-20-one]	0.078
COC[C@@]1(O)CC[C@@]2(C)[C@H](CC[C@@H]3[C@@H]2CC[C@]2(C)[C@@H](C(C)=O)CC[C@@H]32)C1 [3α-hydroxy-30-methoxymethyl-5β-pregnan-20-one]	0.04
CCCCCC#C[C@@]1(O)CC[C@@]2(C)[C@H](CC[C@@H]3[C@@H]2CC[C@]2(C)[C@@H](C(C)=O)CC[C@@H]32)C1 [3β-(1-Heptynyl)-3α-hydroxy-5β-pregnan-20-one]	0.065
CCCCC#C[C@@]1(O)CC[C@@]2(C)[C@H](CC[C@@H]3[C@@H]2CC[C@]2(C)[C@@H](C(C)=O)CC[C@@H]32)C1 [3β-(1-Hexynyl)-3α-hydroxy-5β-pregnan-20-one]	0.044
CCCCCCC#C[C@@]1(O)CC[C@@]2(C)[C@H](CC[C@@H]3[C@@H]2CC[C@]2(C)[C@@H](C(C)=O)CC[C@@H]32)C1 [3β-(1-Octynyl)-3α-hydroxy-5β-pregnan-20-one]	0.063
CC(=O)[C@H]1CC[C@H]2[C@@H]3CC[C@@H]4C[C@@](O)(C#Cc5ccccc5O)CC[C@]4(C)[C@H]3CC[C@]12C [3β-(2'-Hydroxyphenyl)ethynyl-3α-hydroxy-5β-pregnan-20-one]	0.192
CC(=O)c1ccc(C#C[C@@]2(O)CC[C@@]3(C)[C@H](CC[C@@H]4[C@@H]3CC[C@]3(C)[C@@H](C(C)=O)CC[C@@H]43)C2)cc1 [3β-(4'-Acetylphenyl)ethynyl-3α-hydroxy-5β-pregnan-20-one]	0.014
CCOC(=O)c1ccc(C#C[C@@]2(O)CC[C@@]3(C)[C@H](CC[C@@H]4[C@@H]3CC[C@]3(C)[C@@H](C(C)=O)CC[C@@H]43)C2)cc1 [3β-(4'-Carboxyphenyl)ethynyl-3α-hydroxy-5β-pregnan-20-one ethyl ester]	0.008
CC(=O)[C@H]1CC[C@H]2[C@@H]3CC[C@H]4C[C@@](O)(CBr)CC[C@]4(C)[C@H]3CC[C@]12C [3β-(Bromomethyl)-3α-hydroxy-5α-pregnan-20-one]	0.19
C=CCC[C@@]1(O)CC[C@@]2(C)[C@@H](CC[C@@H]3[C@@H]2CC[C@]2(C)[C@@H](C(C)=O)CC[C@@H]32)C1 [3β-(But-3-enyl)-3α-hydroxy-5α-pregnan-20-one]	0.242
C=C=CC[C@@]1(O)CC[C@@]2(C)[C@@H](CC[C@@H]3[C@@H]2CC[C@]2(C)[C@@H](C(C)=O)CC[C@@H]32)C1 [3β-(Buta-2,3-dienyl)-3α-hydroxy-5α-pregnan-20-one]	0.347
CCOC[C@@]1(O)CC[C@@]2(C)[C@@H](CC[C@@H]3[C@@H]2CC[C@]2(C)[C@@H](C(C)=O)CC[C@@H]32)C1 [3β-(Ethoxymethyl)-3α-hydroxy-5α-pregnan-20-one]	0.154
CC(=O)[C@H]1CC[C@H]2[C@@H]3CC[C@@H]4C[C@@](O)(C#CCl)CC[C@]4(C)[C@H]3CC[C@]12C [3β-(chloroethynyl)-3α-hydroxy-5β-pregnan-20-one]	0.026
C#C[C@@]1(O)CC[C@H]2[C@H](CC[C@@H]3[C@@H]2CC[C@]2(C)/C(=C\C)CC[C@@H]32)C1 [3β-Ethynyl-3α-hydroxy-5β-19-nor-pregn-17(z)-ene]	0.46
C#C[C@@]1(O)CC[C@H]2[C@H](CC[C@@H]3[C@@H]2CC[C@]2(C)[C@@H](C(C)=O)CC[C@@H]32)C1 [3β-Ethynyl-3α-hydroxy-19-nor-5β-pregnan-20-one]	0.044
COc1ccc(C#C[C@@]2(O)CC[C@@]3(C)[C@H](CC[C@@H]4[C@@H]3CC[C@]3(C)[C@@H](C(C)=O)CC[C@@H]43)C2)cc1OC [3β-[(3',4'-Dimethoxyphenyl)ethynyl] -3α-hydroxy-5/3-pregnan-20-one]	0.283
